# Laboratory results taken from paper PMC9828254, “Identification of Dihydroorotate Dehydrogenase Inhibitors Using the Cell Painting Assay” (Chembiochem, 2022).
# Entries after “also recorded” stand apart in the source; their conditions may differ.
# What was measured:
# [1] = system: U2OS cells; experiment: Cell Painting assay (CPA), morphological fingerprints; format: cell-based, human; conditions: for biosimilarity (BioSim) to IPP/CNRS-A017 / biosimilarity (BioSim) to brequinar: concentration not given, similar if biosimilarity >75 %; for BioSim [%] (biosimilarity) to IPP/CNRS-A017: reference fingerprint IPP/CNRS-A017 5 μM; for BioSim [%] (biosimilarity) to brequinar: reference fingerprint brequinar 10 μM
# Procedure: Therefore, the definition of bioactivity clusters is crucial for proper hypothesis generation for uncharacterized small molecules that are subjected to the CPA and requires thorough inspection of the CPA fingerprints of reference compounds.[[2b], [9], [10]] […] For the CPA, human osteosarcoma U2OS cells were treated with compounds for 20 h prior to detection of cellular components and compartments (DNA, RNA, mitochondria, Golgi, endoplasmic reticulum (ER), actin, plasma membrane) using six different dyes. Morphological features are extracted and differences to the control (cells that were treated with DMSO) are expressed as Z scores. The CPA fingerprints used in this study compile Z scores for 579 features. […] Myxothiazol is an inhibitor of complex III of the mitochondrial electron transport chain.[15] Whereas de novo biosynthesis of pyrimidines takes place in the cytosol, DHODH is the only enzyme of the pyrimidine biosynthesis pathway that is localized at the inner mitochondrial membrane.[16] DHODH catalyzes the oxidation of dihydroorotate (DHO) to orotate by transferring electrons from DHO via the cofactor FMN to ubiquinone to yield ubiquinol. Electrons from ubiquinol are transferred further to complex III (cytochrome b,c1 complex), thereby recycling […] that is required for DHODH activity. In this way, pyrimidine biosynthesis is tightly coupled to the activity of complex III, which ensures that pyrimidine nucleotides and, thus, DNA and RNA are synthesized only if cells are supplied with sufficient amount of ATP via the mitochondrial respiratory chain. Alternatively, cells can replenish their pyrimidine pools via the salvage pathway by uptake of circulating pyrimidines.[5] Whereas proliferating cells rely on de novo pyrimidine biosynthesis to meet the high demand for nucleotides, the salvage pathway is used by resting and fully differentiated cells.[5]
# The cell painting assay: The Cell Painting assay[25] was performed as described previously.[[9a], [26]] U2OS medium (5 μL) was added to each well of a 384‐well plate (PerkinElmer CellCarrier‐384 Ultra) prior to addition of 1,600 U2OS cells per well and incubation for 4 h at 37 °C. Standard stock concentration of compounds was 10 mM. […] Compounds were added to the cells using the Echo 520 acoustic dispenser (Labcyte) followed by incubation for 20 h at 37 °C. Subsequently, mitochondria were stained with 0.1 μg/μL Mito Tracker Deep Red for 30 min at 37 °C in the dark. Cells were fixed using 3.7 % formaldehyde (in PBS) for 20 min at 37 °C in the dark. Cells were washed three times using PBS before permeabilization using Triton X‐100 for 15 min 37 °C in the dark. After three additional washing steps, 25 μL of a staining solution were added to each well, which contained 1 % BSA, 5 μL/mL Phalloidin (Alexa594 conjugate, Thermo Fisher Scientific, A12381), 25 μg/mL Concanavalin A (Alexa488 conjugate, Thermo Fisher Scientific, Cat. No. C11252), 5 μg/mL Hoechst 33342 (Sigma, Cat. No. B2261‐25 mg), 1.5 μg/mL WGA‐Alexa594 conjugate (Thermo Fisher Scientific, Cat. No. W11262) and 1.5 μM SYTO 14 solution (Thermo Fisher Scientific, Cat. No. S7576). Plates were incubated for 30 min at 37 °C in the dark and washed three times with PBS. Plates were sealed and centrifuged for 1 min at 500 rpm. The plates were prepared in triplicates with shifted layouts to reduce plate effects and imaged using a Micro XL High‐Content Screening System (Molecular Devices) in 5 channels (DAPI: Ex350‐400/Em410‐480; FITC: Ex470‐500/Em510‐540; Spectrum Gold: Ex520‐545/Em560‐585; TxRed: Ex535‐585/Em600‐650; Cy5: Ex605‐650/Em670‐715) with 9 sites per well and 20× magnification (binning 2).
# Generated images were processed with the CellProfiler package[27] (https://cellprofiler.org, version 3.0.0) on a computing cluster of the Max Planck Society to extract 1716 cell features. The data was then further aggregated as medians per well (9 sites→1 well), then over the three replicates.
# [2] = system: HCT116 cells; experiment: DHODH rescue assay / cell growth (cell confluence, IncuCyte); format: cell-based; conditions: for rescue of cell growth by uridine: 100 μM uridine, 96 h; for influence on cell growth (cell confluence): monitored over 96 h; for rescue of cell growth by orotate (OA): 1.5 mM OA
# Procedure: Figure 3 Influence of compounds on cell growth and DHODH activity. (A–C) HCT116 cells were treated with the compounds or DMSO as a control in presence or absence of 100 μM uridine. Cell confluence as a measure of cell growth was monitored over 96 h using IncuCyte ZOOM/S3. (A) Brequinar (BRQ). (B) Myxothiazol (MXT). […] (D–E) In vitro DHODH activity. […] (F) Influence of compound 7 on complex III activity. All data are mean values of three biological replicates (n=3)±SD.
# (§1) DHODH rescue assay: 2,000 HCT116 or U2OS cells per well were seeded in a clear 96‐well plate and incubated as described above overnight prior to treatment. The next day, the medium was replaced by fresh compound or DMSO containing medium supplemented with control solvent or uridine (100 μM), OA (1.5 mM) or DHO (1.5 mM). Cell growth was monitored every 2 h for a total of 96 h after treatment start using an IncuCyte S3 (Essen BioScience). The cell confluence was quantified as a measure of cell growth using the IncuCyte S3 software (Essen BioScience).
# [3] = biological target: T1, Human DHODH (Homo sapiens, UniProt Q02127); experiment: DHODH enzymatic assay (DCPIP reduction); format: biochemical; conditions: for inhibition at 10 µM: 30 min preincubation, read-out: reduction (inhibition) of in vitro DHODH activity
# T1 construct: 40 μL of purified DHODH (aa31–395, final concentration: 1.25 μg/mL); made in house; host or cells: E. coli BL21 (DE3)
# Procedure: Expression was induced by adding 0.8 mM IPTG (AppliChem, A1008,0025) and temperature was reduced to 28 °C for 6 hours. […] The clarified supernatant was loaded to the column and washed with PBS (1 mL/min) for 2 h, followed by elution with 10 mM L‐glutathione (Sigma Aldrich, G4251) in PBS. The GST tag was not removed for further analysis. Factions containing hDHODH‐GST protein were pooled, concentrated with centrifugal filters (Ultra‐50 K, Merck Millipore, UFC905096) and shock‐frozen for further analysis. Protein concentration was determined by Bradford measurement.
# DHODH enzymatic assay: Enzymatic activity of DHODH was assessed by monitoring the reduction of 2,6‐dichlorophenolinindophenol (DCPIP), which is coupled to the oxidation of dihydroorotate by DHODH. […] The reaction was initiated by adding 50 μL mastermix (2 mM L‐dihydroorotic acid, 0.2 mM decylubiquonone, 0.12 mM 2,6 dichlorphenolindophenol (DCPIP) in assay buffer). DCPIP reduction was monitored at λ=600 nm using Tecan Spark plate reader for 20 min.
# [4] = system: U2OS cells; parameters: method as in earlier work; conditions: ref 9b; cited from earlier work
# [5] = biological target: T2, complex III (Bos taurus, UniProt P00157); experiment: MitoTox complex II+III OXPHOS activity assay kit; format: biochemical; conditions: bovine heart mitochondria; Figure 3F
# T2 construct: tissue Abcam ab109905; host or cells: bovine heart mitochondria
# Procedure: MitoTox™ complex II+III OXPHOS activity assay kit: The assay was performed using the MitoTox™ Complex II+III OXPHOS Activity Assay Kit (ab109905, Abcam) according to the manufacturer's instructions. Compounds or DMSO as a control was mixed with succinate solution (electron donor) and oxidized cytochrome c (electron acceptor) in the presence of complex IV inhibitor […] (2 mM, 60168, Sigma Aldrich) and complex I inhibitor Rotenone (12 μM, R8875, Sigma Aldrich). To start the electron transfer reaction, bovine heart mitochondria (0.03 mg/mL) were added to the mixture and conversion of oxidized cytochrome c into the reduced form was monitored for 5 min at 550 nm using the Tecan Spark plate reader.
# [6] = system: U2OS cells; conditions: 100 μM uridine
# Procedure: as §1
# [7] = Homo sapiens, U2OS, Conc 10 μM, 20 h, read-out: Cell count [%]
# [8] = 96 h, 2, 6, 7 at 10 μM, 4 at 30 μM
# [9] = complex III inhibitors, Figure S8, concentration not given
# [10] = Conc 10 μM, 20 h, percentage of significantly altered features
# T1 sequence (Q02127 31-395): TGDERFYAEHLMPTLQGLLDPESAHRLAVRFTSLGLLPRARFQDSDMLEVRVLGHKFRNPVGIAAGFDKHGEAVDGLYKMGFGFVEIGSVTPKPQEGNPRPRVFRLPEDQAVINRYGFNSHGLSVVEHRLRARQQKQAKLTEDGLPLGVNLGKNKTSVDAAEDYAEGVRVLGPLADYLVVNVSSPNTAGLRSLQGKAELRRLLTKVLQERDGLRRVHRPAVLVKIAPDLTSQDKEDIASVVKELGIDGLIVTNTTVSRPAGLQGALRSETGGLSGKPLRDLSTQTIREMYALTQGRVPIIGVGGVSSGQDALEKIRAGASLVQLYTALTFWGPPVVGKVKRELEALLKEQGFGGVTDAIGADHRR
structure (smiles),measurement,setting,value
"NC(=O)c1[nH]nc([C@@H]2O[C@H](CO)[C@@H](O)[C@H]2O)c1O [Pyrazofurin, pyrazofurin]",viability at 10 µM,[1]; [7],97%
same,biosimilarity (BioSim) to IPP/CNRS-A017,[1],high biosimilarity
same,biosimilarity (BioSim) to brequinar,[1],high biosimilarity
same,rescue of cell growth by uridine,[2],fully rescued
same,influence on cell growth (cell confluence),[2],suppressed the growth
Brc1ccc2[nH]c3c(c2c1)CCOC31CCCCC1 [Compound 6],"influence on in vitro DHODH activity, in words",[3]; 10 μM compound,only moderately inhibited
same,inhibition at 10 µM,[3]; 10 μM compound,27 to 44%
same,viability at 10 µM,[1]; [7],88%
same,BioSim [%] (biosimilarity) to IPP/CNRS-A017,[1]; compound Conc 10 μM,87%
same,BioSim [%] (biosimilarity) to brequinar,[1]; compound Conc 10 μM,84%
same,CPA fingerprint similarity to the iron chelator deferoxamine,[4],81%
same,cells in S phase (analysis of CPA fingerprints),[4],accumulation of cells in S phase; also recorded: increase in the percentage of cells in S phase
same,rescue of cell growth by orotate (OA),[2]; [8],relieved
COc1cc(OC)c2c(c1Cl)O[C@@]1(CC[C@@]3(C[C@H]1C)OCCc1c3[nH]c3ccc(C)cc13)C2=O [Compound 4],"influence on in vitro DHODH activity, in words",[3]; 10 μM compound,only moderately inhibited
same,inhibition at 10 µM,[3]; 10 μM compound,27 to 44%
same,viability at 10 µM,[1]; [7],81%
same,rescue of cell growth by orotate (OA),[2]; [8],relieved
"CO/C(=C/C(N)=O)[C@H](C)[C@H](/C=C/c1csc(-c2csc([C@@H](C)/C=C/C=C/C(C)C)n2)n1)OC [Myxothiazol, myxothiazol]","influence on in vitro DHODH activity, in words",[3]; [9],do not inhibit
same,Cell count [%],"[1]; Conc 10 μM, 20 h",73%
same,Ind [%] (induction),[1]; [10],46%
same,biosimilarity (BioSim) to brequinar,[1],biosimilar
same,rescue of cell growth by uridine,[2],only partly restored normal cell growth
same,influence on cell growth (cell confluence),[2],suppressed the growth
same,influence on cell growth (cell confluence),[2]; listed as myxothiazol,growth arrest
CCCCCC[C@H]1C(=O)O[C@H](C)[C@H](NC(=O)c2cccc(NC=O)c2O)C(=O)O[C@@H](C)[C@@H]1OC(=O)CC(C)C [antimycin A],"influence on in vitro DHODH activity, in words",[3]; [9],do not inhibit
same,biosimilarity (BioSim) to brequinar,[1],biosimilar
same,influence on cell growth (cell confluence),[2],growth arrest
CC(=O)Oc1c(C[C@]23CCOC4(CCCCC4)C2=Nc2ccc(Br)cc23)occc1=O [Compound 7],"influence on in vitro DHODH activity, in words",[3]; 10 μM compound,inactive; also recorded: did not have any influence
same,viability at 10 µM,[1]; [7],93%
same,influence on complex III activity,[5],did not impair
same,rescue of cell growth by orotate (OA),[2]; [8],relieved
O=C(Nc1cccnc1)N1Cc2cccc(c2)CN(S(=O)(=O)C(F)(F)F)CC/C=C/C[C@@H]1CO [Compound 5],inhibition at 10 µM,[3]; 10 μM compound,> 50%
same,IC50,"[3]; dose-response, n=3 ± SD, read-out: IC50 for inhibition of DHODH",6.2 ± 3 µM
same,viability at 10 µM,[1]; [7],82%
same,BioSim [%] (biosimilarity) to IPP/CNRS-A017,[1]; compound Conc 10 μM,87%
same,BioSim [%] (biosimilarity) to brequinar,[1]; compound Conc 10 μM,84%
same,CPA fingerprint similarity to the iron chelator deferoxamine,[4],80%
same,cells in S phase (analysis of CPA fingerprints),[4],accumulation of cells in S phase; also recorded: increase in the percentage of cells in S phase
CN1C(=O)[C@@]2(C(=O)N(Cc3ccncc3)c3ccc(OC(F)(F)F)cc32)c2ccccc21 [Compound 2],"influence on in vitro DHODH activity, in words",[3]; 10 μM compound,only moderately inhibited
same,inhibition at 10 µM,[3]; 10 μM compound,27 to 44%
same,viability at 10 µM,[1]; [7],90%
same,rescue of cell growth by orotate (OA),[2]; [8],relieved
COc1ccc2[nH]c3c(c2c1)CCO[C@]31CC[C@@]2(Oc3c(Cl)c(OC)cc(OC)c3C2=O)[C@H](C)C1 [Compound 3],inhibition at 10 µM,[3]; 10 μM compound,> 50%
same,viability at 3 µM,"[1]; Homo sapiens, U2OS, Conc 3 μM, 20 h, read-out: Cell count [%]",94%
"Cc1c(-c2ccc(-c3ccccc3F)cc2)nc2ccc(F)cc2c1C(=O)O [Brequinar, brequinar]",Ind [%] (induction),[1]; [10],36%
same,viability at 10 µM,[1]; [7],89%
same,biosimilarity to the fingerprint of methotrexate,"[1]; full fingerprints, Figure S3A and S3B",lack of biosimilarity
same,BioSim [%] (biosimilarity) to myxothiazol,"[1]; reference fingerprint myxothiazol 10 μM, compound Conc 10 μM",84%
same,rescue of cell growth by uridine,[6],completely rescue
same,rescue of cell growth by uridine,[2],completely rescue; also recorded: full cell growth recovery
same,rescue of cell growth by dihydroorotate (DHO),"[2]; 1.5 mM DHO, 96 h, 2, 6, 7 at 10 μM, 4 at 30 μM",could not restore
same,rescue of cell growth by orotate (OA),[2]; [8],rescued normal cell proliferation
Cc1c(Oc2ccc(F)cc2)c(OC(C)C)nn1-c1ccc(C2CC2)cn1 [Compound 1],Ind [%] (induction),"[1]; Conc 5 μM, 20 h",10%
same,viability at 5 µM,"[1]; Homo sapiens, U2OS, Conc 5 μM, 20 h, read-out: Cell count [%]",105%
same,biosimilarity (BioSim) to IPP/CNRS-A017,[1],not biosimilar
same,biosimilarity (BioSim) to brequinar,[1],not biosimilar
same,BioSim [%] (biosimilarity) to brequinar,[1]; compound Conc 5 μM,39%
